The assay deals with T1, AKR1C3 (Homo sapiens, UniProt P42330).
T1 construct: Recombinant N-terminal His-tagged AKR1C3
Kind of assay: recombinant AKR1C3 phenanthrenequinone reduction, NADPH absorbance at […] nm. It counts as biochemical.

T1 sequence (P42330 whole entry): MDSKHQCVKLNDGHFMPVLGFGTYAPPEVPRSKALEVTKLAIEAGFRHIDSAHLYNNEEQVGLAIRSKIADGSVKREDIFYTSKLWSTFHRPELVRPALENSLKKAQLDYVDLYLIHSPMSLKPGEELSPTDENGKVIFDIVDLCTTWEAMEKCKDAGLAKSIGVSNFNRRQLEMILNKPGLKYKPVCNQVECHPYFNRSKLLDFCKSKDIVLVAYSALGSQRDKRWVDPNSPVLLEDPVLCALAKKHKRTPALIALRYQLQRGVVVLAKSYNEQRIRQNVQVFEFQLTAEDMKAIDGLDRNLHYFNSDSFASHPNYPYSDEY

`CC(=O)O[C@]1(C(C)=O)CC[C@H]2[C@@H]3C[C@H](C)C4=CC(=O)CC[C@]4(C)[C@H]3CC[C@@]21C` [MPA, medroxyprogesterone acetate]: the IC50 was 1.1 µM.

For orientation: IC50 means the concentration that gives 50% inhibition.

Source of the values: PMC2785482, “Combined Bezafibrate and Medroxyprogesterone Acetate: Potential Novel Therapy for Acute Myeloid Leukaemia” (PLoS ONE, 2009).
